Article PMC5533163 (Medicines, 2015)
Where two headings read alike, the source gives them in different places.

Key:
[1] = target: T1, CYP2D6 (Homo sapiens, UniProt P10635); assay: Reversible inhibition and enzyme kinetics of CYP2D6 in pooled HLM (dextromethorphan to dextrorphan); format: in vitro ADME; parameters: The reaction was initiated by the addition of HLM (0.6 mg/mL protein); tissue Corning Life Sciences (Cambridge, MA, USA); host or cells: pooled human liver microsomes, 25 donors, mixed gender; details: for Type of inhibition of CYP2D6 in HLM: Lineweaver-Burk plot
T1 sequence (P10635 whole entry): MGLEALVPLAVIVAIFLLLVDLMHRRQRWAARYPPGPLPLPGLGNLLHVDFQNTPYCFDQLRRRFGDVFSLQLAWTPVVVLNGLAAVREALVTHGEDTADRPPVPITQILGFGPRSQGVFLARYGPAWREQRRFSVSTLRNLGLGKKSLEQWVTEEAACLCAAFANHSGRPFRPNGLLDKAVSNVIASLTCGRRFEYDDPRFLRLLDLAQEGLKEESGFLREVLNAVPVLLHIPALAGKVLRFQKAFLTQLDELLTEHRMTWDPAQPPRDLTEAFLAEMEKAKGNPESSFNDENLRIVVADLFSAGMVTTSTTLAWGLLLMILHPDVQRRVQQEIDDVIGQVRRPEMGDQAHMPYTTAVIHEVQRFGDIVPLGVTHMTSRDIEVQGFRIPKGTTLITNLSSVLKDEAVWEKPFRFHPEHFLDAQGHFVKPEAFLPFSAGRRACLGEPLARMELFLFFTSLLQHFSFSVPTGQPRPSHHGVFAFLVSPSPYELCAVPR

[2] = target: T2, P-gp (Homo sapiens, UniProt P08183); assay: P-gp inhibition, calcein-AM uptake in hMDR1-MDCK-II and MDCK-II cells; format: cell-based; details: calcein-AM 1 µM, mean ± SD of three experiments
T2 construct: host or cells: hMDR1-MDCK-II (canine kidney cells transfected with human MDR1)
T2 sequence (P08183 whole entry): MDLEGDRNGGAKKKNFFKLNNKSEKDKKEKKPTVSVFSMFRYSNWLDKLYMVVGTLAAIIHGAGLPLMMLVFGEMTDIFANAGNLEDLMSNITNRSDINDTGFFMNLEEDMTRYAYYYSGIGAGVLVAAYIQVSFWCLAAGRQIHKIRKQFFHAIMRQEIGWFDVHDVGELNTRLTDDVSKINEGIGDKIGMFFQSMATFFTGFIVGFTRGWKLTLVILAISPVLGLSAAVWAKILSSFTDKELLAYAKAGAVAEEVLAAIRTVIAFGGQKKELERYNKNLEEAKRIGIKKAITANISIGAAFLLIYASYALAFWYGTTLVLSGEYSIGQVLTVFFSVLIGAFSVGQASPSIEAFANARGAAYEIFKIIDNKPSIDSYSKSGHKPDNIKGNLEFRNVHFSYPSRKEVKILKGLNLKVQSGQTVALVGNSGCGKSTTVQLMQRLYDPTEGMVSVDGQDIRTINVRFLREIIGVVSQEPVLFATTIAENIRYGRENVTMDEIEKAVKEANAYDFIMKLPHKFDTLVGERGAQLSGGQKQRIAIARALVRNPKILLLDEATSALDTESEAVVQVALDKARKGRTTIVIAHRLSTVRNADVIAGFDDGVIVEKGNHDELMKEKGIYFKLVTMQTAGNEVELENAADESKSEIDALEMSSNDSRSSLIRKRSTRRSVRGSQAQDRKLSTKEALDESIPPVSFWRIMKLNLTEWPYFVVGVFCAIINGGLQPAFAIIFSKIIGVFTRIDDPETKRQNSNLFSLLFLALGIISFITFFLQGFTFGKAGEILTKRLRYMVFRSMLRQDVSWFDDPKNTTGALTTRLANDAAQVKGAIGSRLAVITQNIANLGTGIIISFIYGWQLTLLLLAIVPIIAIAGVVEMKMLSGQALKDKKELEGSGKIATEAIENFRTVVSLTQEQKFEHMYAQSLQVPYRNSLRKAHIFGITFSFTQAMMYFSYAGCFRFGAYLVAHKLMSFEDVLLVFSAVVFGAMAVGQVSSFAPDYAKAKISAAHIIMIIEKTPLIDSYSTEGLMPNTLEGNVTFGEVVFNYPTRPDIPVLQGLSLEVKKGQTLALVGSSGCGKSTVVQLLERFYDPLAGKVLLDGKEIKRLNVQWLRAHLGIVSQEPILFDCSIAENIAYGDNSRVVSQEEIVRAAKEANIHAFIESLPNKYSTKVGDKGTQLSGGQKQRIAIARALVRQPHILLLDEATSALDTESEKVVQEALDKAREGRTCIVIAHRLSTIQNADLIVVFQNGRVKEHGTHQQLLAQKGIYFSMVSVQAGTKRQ

[3] = humans, cited from earlier work
[4] = target: T3, CYP2C19 (Homo sapiens, UniProt P33261); assay: Reversible inhibition of recombinant CYP2C19; format: in vitro ADME; details: recombinant enzyme, 100–0.4 µM, data not shown
T3 construct: purchased BD Gentest (Woburn, MA, USA)
T3 sequence (P33261 whole entry): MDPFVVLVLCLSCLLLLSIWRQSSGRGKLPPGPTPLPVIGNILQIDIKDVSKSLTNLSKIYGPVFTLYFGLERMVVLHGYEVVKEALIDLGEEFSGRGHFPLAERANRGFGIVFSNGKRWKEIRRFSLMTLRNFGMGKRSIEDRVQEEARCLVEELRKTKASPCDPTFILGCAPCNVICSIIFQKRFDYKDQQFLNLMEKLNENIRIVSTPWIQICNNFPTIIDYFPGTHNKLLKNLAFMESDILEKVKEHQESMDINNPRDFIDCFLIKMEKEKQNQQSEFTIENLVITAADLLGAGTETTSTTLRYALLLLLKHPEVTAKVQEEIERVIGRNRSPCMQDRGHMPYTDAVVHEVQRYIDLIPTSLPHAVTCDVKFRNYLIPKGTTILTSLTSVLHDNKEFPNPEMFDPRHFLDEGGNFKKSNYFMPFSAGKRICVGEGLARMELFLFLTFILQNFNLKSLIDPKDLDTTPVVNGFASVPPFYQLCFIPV
Description: (§1) The assay conditions for determining reversible and time dependent inhibition of CYPs were similar as reported earlier. Test samples or positive controls were serially diluted in a solution (100 µL) of cofactors mix, control protein (0.05 mg of protein/mL) and Glucose-6-phosphate dehydrogenase (G6PDH) to achieve six concentrations (100–0.4 µM). To account for any inherent fluorescence, the plates were incubated at 37 °C for 10 min and fluorescence readings were taken. Enzyme substrate mixture (100 µL) was added to initiate the reaction and the plates were further incubated for 15 (CYP1A2), 30 (CYP3A4, 2C9 and 2C19) or 45 min (CYP2D6). The reaction was stopped by the addition of 75 µL of acetonitrile/0.5M Tris base (80:20). Fluorescence was measured on Spectramax M5 plate reader (Molecular Devices, Sunnyvale, CA, USA) at specified excitation and emission wavelengths for each substrate. IC50 values (co-incubation assay) were obtained from concentration-response curves generated by plotting log concentration versus % control.

[5] = target: T4, CYP3A4 (Homo sapiens, UniProt P08684); format: in vitro ADME; parameters: The reaction was initiated by the addition of HLM (0.6 mg/mL protein); tissue Corning Life Sciences (Cambridge, MA, USA); host or cells: pooled human liver microsomes, 25 donors, mixed gender; details: Lineweaver-Burk plot, testosterone metabolism
T4 sequence (P08684 whole entry): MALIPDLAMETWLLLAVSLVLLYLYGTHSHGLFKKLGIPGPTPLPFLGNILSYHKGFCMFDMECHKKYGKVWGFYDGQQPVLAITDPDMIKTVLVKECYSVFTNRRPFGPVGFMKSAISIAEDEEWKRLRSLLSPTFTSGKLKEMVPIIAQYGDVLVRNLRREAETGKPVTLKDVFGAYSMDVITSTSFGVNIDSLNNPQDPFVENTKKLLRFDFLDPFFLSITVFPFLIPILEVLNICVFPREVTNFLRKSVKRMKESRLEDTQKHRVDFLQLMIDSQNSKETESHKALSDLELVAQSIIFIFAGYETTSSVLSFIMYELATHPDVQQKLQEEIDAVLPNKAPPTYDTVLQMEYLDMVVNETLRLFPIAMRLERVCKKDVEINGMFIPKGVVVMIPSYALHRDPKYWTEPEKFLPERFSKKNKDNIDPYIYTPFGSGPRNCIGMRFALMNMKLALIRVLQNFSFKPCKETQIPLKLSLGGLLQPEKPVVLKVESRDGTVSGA

[6] = target: T5, CYP1A2 (Homo sapiens, UniProt P05177); assay: Inhibition of recombinant CYP1A2; format: in vitro ADME; details: recombinant enzyme
T5 construct: purchased BD Gentest (Woburn, MA, USA)
T5 sequence (P05177 whole entry): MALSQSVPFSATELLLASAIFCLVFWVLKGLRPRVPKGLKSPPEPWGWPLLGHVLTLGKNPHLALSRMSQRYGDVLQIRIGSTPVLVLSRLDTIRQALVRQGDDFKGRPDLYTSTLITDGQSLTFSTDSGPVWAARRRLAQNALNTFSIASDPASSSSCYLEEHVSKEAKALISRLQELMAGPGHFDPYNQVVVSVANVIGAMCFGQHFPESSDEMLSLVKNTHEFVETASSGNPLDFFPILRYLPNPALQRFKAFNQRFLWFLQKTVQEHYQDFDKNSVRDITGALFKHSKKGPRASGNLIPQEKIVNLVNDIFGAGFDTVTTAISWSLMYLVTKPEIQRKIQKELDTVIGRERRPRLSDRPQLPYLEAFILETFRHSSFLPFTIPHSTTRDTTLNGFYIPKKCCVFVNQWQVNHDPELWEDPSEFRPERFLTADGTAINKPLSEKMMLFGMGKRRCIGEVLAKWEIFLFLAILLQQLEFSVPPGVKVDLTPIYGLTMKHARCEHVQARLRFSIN

[7] = target: T6, CYP2C9 (Homo sapiens, UniProt P11712); assay: Reversible inhibition of recombinant CYP2C9; format: in vitro ADME; details: recombinant enzyme, 100–0.4 µM, data not shown
T6 construct: purchased BD Gentest (Woburn, MA, USA)
T6 sequence (P11712 whole entry): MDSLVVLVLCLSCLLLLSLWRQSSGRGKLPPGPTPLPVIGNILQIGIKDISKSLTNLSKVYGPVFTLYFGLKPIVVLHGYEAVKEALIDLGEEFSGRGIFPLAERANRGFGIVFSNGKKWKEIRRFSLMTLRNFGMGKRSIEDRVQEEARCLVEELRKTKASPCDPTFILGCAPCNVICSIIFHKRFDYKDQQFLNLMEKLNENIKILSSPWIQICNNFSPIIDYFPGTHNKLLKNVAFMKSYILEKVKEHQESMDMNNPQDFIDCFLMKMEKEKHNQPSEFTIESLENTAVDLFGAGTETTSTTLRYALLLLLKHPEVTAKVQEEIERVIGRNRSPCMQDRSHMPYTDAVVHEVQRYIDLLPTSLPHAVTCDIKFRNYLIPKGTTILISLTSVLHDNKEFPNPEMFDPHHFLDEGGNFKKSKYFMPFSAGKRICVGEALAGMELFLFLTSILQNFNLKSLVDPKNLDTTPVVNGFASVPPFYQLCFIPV
Description: as §1

[8] = target: T4, CYP3A4; assay: Reversible (co-incubation) and time dependent (pre-incubation) inhibition of recombinant CYP3A4, fluorescent substrate BFC; format: in vitro ADME; parameters: purchased BD Gentest (Woburn, MA, USA); details: based on IC50 shift ratio criterion > 1.5
[9] = target: T1, CYP2D6; assay: Reversible (co-incubation) and time dependent (pre-incubation) inhibition of recombinant CYP2D6, fluorescent substrate AMMC; format: in vitro ADME; parameters: purchased BD Gentest (Woburn, MA, USA); details: for IC50: recombinant enzyme, mean ± SD of three experiments

Type of inhibition of CYP2D6 in HLM ([1]; dextromethorphan metabolism): non-competitive inhibition | Type of inhibition of CYP2D6 in HLM ([1]; dextromethorphan metabolism, listed as vinpocetine): competitive | IC50 at 20 min ([1]; human, pooled human liver microsomes, pH 7.4, probe dextromethorphan (to dextrorphan), pooled HLM, dextromethorphan as probe substrate): 19 µM | Ki ([1]; pooled HLM, dextromethorphan metabolism, Dixon plot): 26 µM | EC50 [2]: 8 µM | Inhibition of CYP2C19 [4]: no activity | Inhibition of CYP2C19 ([4]; listed as vinpocetine): No inhibition | Type of inhibition of CYP3A4 in HLM [5]: competitive inhibition | Type of inhibition of CYP3A4 in HLM ([5]; listed as vinpocetine): competitive | Inhibition of CYP1A2 [6]: no activity | Inhibition of CYP2C9 [7]: no activity | Inhibition of CYP2C9 ([7]; listed as vinpocetine): No inhibition | Time dependent inhibition (TDI) of CYP3A4 [8]: no TDI | Time dependent inhibition (TDI) of CYP2D6 ([9]; based on IC50 shift ratio criterion > 1.5): no TDI | IC50 ([9]; 30 min pre-incubation (TDI assay), read-out: CYP2D6 (recombinant) IC50 Pre-incubation): 37 ± 1.6 µM | IC50 ([9]; co-incubation (reversible inhibition), read-out: CYP2D6 (recombinant) IC50 Co-incubation): 6.5 ± 1.1 µM
SMILES: CCOC(=O)C1=C[C@]2(CC)CCCN3CCc4c(n1c1ccccc41)[C@@H]32 [Vinpocetine, ethyl apovincaminate]
Maximum plasma concentration (Cmax) ([3]; oral): 60 ng/mL | Oral bioavailability [3]: 6%
